According to patent US20250188030A1, “Biphenyl and Phenylpyridine Compounds” (Pfizer Inc., priority 2023, published 2025):
Read-outs that look alike come from different tables or passages of the source.

Experiments:
H3K9AC (HT1080 cells) = assay: H3K9AC Sandwich ELISA Assay in HT1080 cells (KAT2A primary cell-based screening assay); parameters: species or system Human
Outline: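 Acetylated H3K9 quantified by luminescent sandwich ELISA (total H3 capture, H3K9ac detection) on HCl lysates of HT1080 cells. Cells had 24 h compound exposure at 37 °C, top concentration 10 µM, 10-point 3-fold series, 0.1% DMSO; IC50 from four-parameter fitting.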

MM.1S cells = assay: MM1.S 10 Day Proliferation Assay (CellTiter-Glo); format: cell-based, Human
Protocol: Human B lymphoblast cell line MM.1S was obtained from American Type Culture Collection (ATCC), Manassas, VA USA, Cat. MM.1S (ATCC® CRL-2974™). Cells were cultured in RPMI (Thermo Fisher Scientific/Gibco Life Technologies Cat. #111875-093) plus 10% (v/v) FBS (Thermo Fisher Scientific/Gibco Life Technologies Cat. #26140-079) and 1% Penicillin-Streptomycin (Thermo Fisher Scientific/Gibco Life Technologies Cat. #15070063) at 37° C. in 5% CO2.
MM1.S cells were trypsinized cell viability count performed, and cells suspended in complete media at 5,556 cells/ml. Cells were then seeded (90 μl/well) into a 96-well round black/clear bottom, ULA (Ultra-Low Attachment surface plate (Corning cat #4520) at a density of 500 cells/well. Cells were then incubated for 16 hours at 37° C. and 5% CO2. Compound dilution plates were prepared in 96-well, clear U-bottom, polypropylene plates (Corning 3365) in 100% DMSO at 10 mM stock concentration in duplicate wells, using a 10-point serial dilution (1:3 dilutions). Compounds were diluted to 1:100 in growth medium. Then 10 μl of diluted compounds were added to each well of the cell plates using a Beckman FX liquid handling system such that the highest compound concentration tested was 10 μM final, with a 0.1% final DMSO concentration in the total volume of 100 μl. Plates were incubated for 10 total days at 37° C. and 5% CO2. Fresh media containing compound was refreshed at 5 days treatment.
Finally, the treatment plates were removed from the incubator and 100 μl of CellTiter-Glo Luminescent reagent was added to each well, and plates were equilibrated in the dark for 30 minutes. Plates were read on the PHERAstar plate reader using the 96-well with Luminescent reading mode. IC50 values were calculated using a four-parameter fit with GraphPad Prism version 9.5.1 or in house modified IDBS ActivityBase data analyzing package.

KAT2A = KAT2A (Homo sapiens (Human), UniProt Q92830); assay: KAT2A acetyltransferase biochemical assay (RapidFire mass spectrometry, AcCoA to CoA)
Sequence of KAT2A (Q92830 whole entry): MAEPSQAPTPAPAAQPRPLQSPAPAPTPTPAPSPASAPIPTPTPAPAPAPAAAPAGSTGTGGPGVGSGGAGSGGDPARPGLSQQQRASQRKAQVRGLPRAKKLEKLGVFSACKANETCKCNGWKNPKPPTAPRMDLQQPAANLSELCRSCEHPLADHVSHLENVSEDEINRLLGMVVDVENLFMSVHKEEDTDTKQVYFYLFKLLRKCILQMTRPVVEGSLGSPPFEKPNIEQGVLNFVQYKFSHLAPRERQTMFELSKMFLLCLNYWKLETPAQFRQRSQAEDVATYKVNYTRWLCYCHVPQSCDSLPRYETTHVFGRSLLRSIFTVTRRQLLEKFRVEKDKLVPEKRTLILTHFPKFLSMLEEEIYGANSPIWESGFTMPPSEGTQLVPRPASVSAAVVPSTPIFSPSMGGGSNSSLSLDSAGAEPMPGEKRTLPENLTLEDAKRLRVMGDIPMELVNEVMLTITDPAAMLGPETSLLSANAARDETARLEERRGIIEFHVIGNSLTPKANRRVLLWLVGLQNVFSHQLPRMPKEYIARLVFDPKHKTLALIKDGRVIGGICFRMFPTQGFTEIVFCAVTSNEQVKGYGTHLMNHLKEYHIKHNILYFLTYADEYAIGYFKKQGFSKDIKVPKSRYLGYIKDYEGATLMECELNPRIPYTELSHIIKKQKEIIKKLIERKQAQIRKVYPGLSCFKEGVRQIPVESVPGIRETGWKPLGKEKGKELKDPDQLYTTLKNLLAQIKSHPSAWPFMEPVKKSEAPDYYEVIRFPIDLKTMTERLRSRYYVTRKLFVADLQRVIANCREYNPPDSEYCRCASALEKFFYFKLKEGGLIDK

[1] = read-out: KAT2A Ki at 1 μM AcCoA, 5 μM H3 1-21 peptide, 0.5 nM KAT2A, 90-minute reaction
[2] = Homo sapiens, HT-1080, H3K9AC sandwich ELISA
[3] = KAT2A Ki at 1 μM AcCoA, 5 μM H3 1-21 peptide, 0.5 nM KAT2A, 90-minute reaction

| IC50 (H3K9AC (HT1080 cells); H3K9AC sandwich ELISA) [nM] | IC50 (MM.1S cells; Homo sapiens, MM1.S, 240 h) [nM] | Ki (KAT2A; [1]) [nM] | IC50 (MM.1S cells) [nM] | IC50 (H3K9AC (HT1080 cells); [2]) [nM] | Ki (KAT2A; [3]) [nM] | SMILES |
| --- | --- | --- | --- | --- | --- | --- |
| 5.8 | 31.1 | 0.03 | – | – | – | CC(C)S(=O)(=O)NC(=O)Cc1cccc(O[C@@H]2CC[C@@H](NC(=O)[C@@]3(F)CNC4(CCC4)C3)C2)c1-c1cccc(F)c1C1CCC1 (atropisomer, axis not shown) [Example I16, (7S)-N-[(1R,3R)-3-({(1ψ)-2′-cyclobutyl-3′-fluoro-6-[2-oxo-2-(propane-2-sulfonamido)ethyl][1,1′-biphenyl]-2-yl}oxy)cyclopentyl]-7-fluoro-5-azaspiro[3.4]octane-7-carboxamide] |
| 23.2 | 249 | 24.2 | – | – | – | CN1CC(C)(C)C[C@H]1C(=O)N[C@@H]1CC[C@@H](Oc2cccc(CC(=O)NS(C)(=O)=O)c2-c2ccccc2C2CCC2)C1 (atropisomer, axis not shown) [Example I4, N-[(1R,3R)-3-{[(1ψ)-2′-cyclobutyl-6-{2-[(methanesulfonyl)amino]-2-oxoethyl}[1,1′-biphenyl]-2-yl]oxy}cyclopentyl]-1,4,4-trimethyl-L-prolinamide] |
| 2.1 | 1.4 | 0.04 | – | – | – | CCS(=O)(=O)NC(=O)C(C)(C)c1ccc(O[C@@H]2CC[C@@H](NC(=O)[C@@]3(F)CNCC4(CCC4)C3)C2)c(-c2cccc(F)c2C2CCC2)c1 (single isomer, unassigned) [Example B31] |
| 3.49 | – | 0.1 | 41.7 | – | – | CC(C)S(=O)(=O)NC(=O)C(C)(C)c1ccc(O[C@@H]2CC[C@@H](NC(=O)[C@@]3(F)CNC(C)(C)C3)C2)c(-c2cccc(F)c2C2CCC2)c1 (single isomer, unassigned) [Example B17] |
| 18.6 | 23.6 | 0.3 | – | – | – | C[C@@H](C(=O)O)c1nn(C)cc1-c1ccc(O[C@@H]2CC[C@@H](NC(=O)[C@]3(F)CNC4(CCC4)C3)C2)c(-c2cccc(F)c2C2CCC2)c1 (single isomer, unassigned) [Example J4] |
| – | 417 | 10.8 | – | 45 | – | C[C@@H](C(=O)O)c1ccc(O[C@@H]2CC[C@@H](NC(=O)[C@@H]3CC(C)(C)CN3C)C2)c(-c2cccc(F)c2C2CCC2)c1 (single isomer, unassigned) [Example D13] |
| – | 4 | 0.4 | – | 3 | – | CCc1ccccc1-c1cc(CC(=O)NS(=O)(=O)C2(C)CC2)ccc1O[C@@H]1CC[C@@H](NC(=O)[C@@]2(F)CNC3(CCC3)C2)C1 [Example C51, (7S)-N-[(1R,3R)-3-({2′-ethyl-5-[2-(1-methylcyclopropane-1-sulfonamido)-2-oxoethyl][1,1′-biphenyl]-2-yl}oxy)cyclopentyl]-7-fluoro-5-azaspiro[3.4]octane-7-carboxamide] |
| – | 14.3 | 0.33 | – | 2.9 | – | CC(C)c1ccccc1-c1cc(C(C)(C)C(=O)NS(=O)(=O)C(C)C)ccc1O[C@@H]1CC[C@@H](NC(=O)[C@@]2(F)CNC3(CCC3)C2)C1 [Example C47, (7S)-7-fluoro-N-[(1R,3R)-3-({5-[2-methyl-1-oxo-1-(propane-2-sulfonamido)propan-2-yl]-2′-(propan-2-yl)[1,1′-biphenyl]-2-yl}oxy)cyclopentyl]-5-azaspiro[3.4]octane-7-carboxamide] |
| – | 31.3 | 0.84 | – | 4.5 | – | CC(C)c1c(F)cccc1-c1cc(CC(=O)O)ccc1O[C@@H]1CC[C@@H](NC(=O)[C@@]2(F)CNC3(CCC3)C2)C1 [Example A32, [3′-fluoro-6-{[(1R,3R)-3-{[(7S)-7-fluoro-5-azaspiro[3.4]octane-7-carbonyl]amino}cyclopentyl]oxy}-2′-(propan-2-yl)[1,1′-biphenyl]-3-yl]acetic acid] |
| – | 125 | 12.9 | – | 41.5 | – | CN1CC(C)(C)C[C@H]1C(=O)N[C@H]1C[C@H](COc2ccc(CC(=O)O)cc2-c2cccc(F)c2C2CCC2)C1 [Example F1, [2′-cyclobutyl-3′-fluoro-6-({(1S,3r)-3-[(1,4,4-trimethyl-L-prolyl)amino]cyclobutyl}methoxy)[1,1′-biphenyl]-3-yl]acetic acid] |
| – | 43.4 | 0.21 | – | 6.9 | – | Cc1cc(NS(C)(=O)=O)n(-c2ccc(O[C@@H]3CC[C@@H](NC(=O)[C@@]4(F)CNC5(CCC5)C4)C3)c(-c3cccc(F)c3C3CCC3)c2)n1 (single isomer, unassigned) [Example L3] |
| – | 61.4 | – | – | 10.8 | 0.66 | CN1CC(C)(C)C[C@H]1C(=O)N[C@@H]1CC[C@@H](Oc2ccc(CC(=O)NS(C)(=O)=O)cc2-c2cccc(F)c2C2CCC2)C1 [Example E2, N-{(1R,3R)-3-[(2′-cyclobutyl-3′-fluoro-5-{2-[(methanesulfonyl)amino]-2-oxoethyl}[1,1′-biphenyl]-2-yl)oxy]cyclopentyl}-1,4,4-trimethyl-L-prolinamide] |
| – | 2.85 | 0.02 | – | 1.78 | – | O=C(Cc1ccc(O[C@@H]2CC[C@@H](NC(=O)[C@@]3(F)CNC4(CCC4)C3)C2)c(-c2cccc(F)c2C2CCC2)c1)NS(=O)(=O)C1CC1 (single isomer, unassigned) [Example C31] |
| – | 36.8 | 0.43 | – | 18 | – | CC(C)(C(=O)NS(C)(=O)=O)c1ccc(O[C@@H]2CC[C@@H](NC(=O)[C@@]3(F)CNC4(CCC4)C3)C2)c(-c2cccc(F)c2C2CCC2)c1 [Example C1, (7S)—N-{(1R,3R)-3-[(2′-cyclobutyl-3′-fluoro-5-{1-[(methanesulfonyl)amino]-2-methyl-1-oxopropan-2-yl}[1,1′-biphenyl]-2-yl)oxy]cyclopentyl}-7-fluoro-5-azaspiro[3.4]octane-7-carboxamide] |
| – | 102 | 3.78 | – | 20.9 | – | CN1C[C@](F)(C(=O)N[C@@H]2CC[C@@H](Oc3ccc(C(C)(C)C(=O)NS(C)(=O)=O)cc3-c3cccc(F)c3C3CCC3)C2)CC1(C)C (single isomer, unassigned) [Example B7] |
| – | 126 | 26.4 | – | 21.3 | – | CCc1c(F)cccc1-c1cc(C(C)(C)C(=O)NS(C)(=O)=O)ccc1O[C@@H]1CC[C@@H](NC(=O)[C@@H]2CC(C)(C)CN2C)C1 [Example E10, N-{(1R,3R)-3-[(2′-ethyl-3′-fluoro-5-{1-[(methanesulfonyl)amino]-2-methyl-1-oxopropan-2-yl}[1,1′-biphenyl]-2-yl)oxy]cyclopentyl}-1,4,4-trimethyl-L-prolinamide] |
| – | 36.2 | 0.17 | – | 9.5 | – | CCS(=O)(=O)NC(=O)C(C)(C)c1ccc(OC[C@H]2C[C@H](NC(=O)[C@@]3(F)CNC4(CCC4)C3)C2)c(-c2cccc(F)c2C2CCC2)c1 (single isomer, unassigned) [Example G5, (7Rξ)-N-{(1r,3r)-3-[({2′-cyclobutyl-5-[1-(ethanesulfonamido)-2-methyl-1-oxopropan-2-yl]-3′-fluoro[1,1′-biphenyl]-2-yl}oxy)methyl]cyclobutyl}-7-fluoro-5-azaspiro[3.4]octane-7-carboxamide] |
| – | 2.5 | 0.11 | – | 0.8 | – | CC(C)c1ccccc1-c1cc(CC(=O)NS(=O)(=O)C(C)C)ccc1O[C@@H]1CC[C@@H](NC(=O)[C@@]2(F)CNC3(CCC3)C2)C1 [Example C55, (7S)-7-fluoro-N-[(1R,3R)-3-({5-[2-oxo-2-(propane-2-sulfonamido)ethyl]-2′-(propan-2-yl)[1,1′-biphenyl]-2-yl}oxy)cyclopentyl]-5-azaspiro[3.4]octane-7-carboxamide] |
| – | – | – | 16.4 | 4.76 | 0.29 | CC(C(=O)NS(C)(=O)=O)c1ccc(O[C@@H]2CC[C@@H](NC(=O)[C@@H]3CC(C)(C)CN3C)C2)c(-c2cccc(F)c2C2CCC2)c1 (single isomer, unassigned) [Example E8] |
| – | 419 | 4.05 | – | 52.8 | – | CN1CC(C)(C)C[C@H]1C(=O)N[C@@H]1CC[C@@H](Oc2ccc(C(C)(C)C(=O)O)cc2-c2cccc(F)c2C2CCC2)C1 [Example D1, 2-[2′-cyclobutyl-3′-fluoro-6-({(1R,3R)-3-[(1,4,4-trimethyl-L-prolyl)amino]cyclopentyl}oxy)[1,1′-biphenyl]-3-yl]-2-methylpropanoic acid] |
| > 1000 | – | > 99.9 | > 1000 | – | – | CC(C)c1ccccc1-c1cc(C(=O)O)ccc1O[C@@H]1CC[C@@H](NC(=O)[C@@]2(F)CNC3(CCCC3)C2)C1 (single isomer, unassigned) [Example A40] |
